Source: patent US7507739B2, “6-[(substituted)phenyl]triazolopyrimidines as anticancer agents” (Wyeth, priority 2003, dated 2009)

Key:
[1] = tested on: DLD1 Human Colon Carcinoma; assay: Human tumor xenograft test, DLD1; type: in vivo; details: DLD1, 15 mg/kg intravenously on days 1, 5, 9, and 13
Method: (§1) The ability of compounds of this invention to inhibit tumor growth in animals is studied in the athymic mouse xenograft standard pharmacological test. Female nu/nu mice in an outbred albino background are obtained from Charles River Laboratories (Wilmington, Mass.). Animals are injected subcutaneously on the flank with the desired tumor cell suspension. Several days later, mice with tumors of approximately 150 mm^3 are selected from those injected (staged) and randomly distributed into groups of 5-10. The day of staging is called day 0. Compounds of the invention, usually formulated in saline (exceptions are noted in tables), are administered to animals by intravenous injection or oral gavage on various schedules starting on day 0 or 1, as noted in the tables. The control group in each experiment is dosed with vehicle on the same schedule. Tumor size is measured every 3-7 days with calipers in two orthogonal dimensions, and tumor volume is calculated from the formula volume=[(length×width^2)/2].
(§2) Tumor/Control (T/C) is obtained by dividing the mean tumor volume of the treated group by the mean tumor volume of the control group on each measurement day. A treatment dose is defined as active if it produced a statistically significant T/C of 0.50 or less. A p value≦0.05, determined by one-side Student's t-test, is required for statistical significance. A treatment dose is defined as toxic if more than 10% of the animals died from a compound-related toxicity.

[2] = tested on: COLO 205 cells; assay: MTS cytotoxicity test with COLO 205 cells; type: cell-based, human; details: 3 days
Method: The assay, which is sold in kit form by Promega (Madison, Wis.; CellTiter 96 AQueous Non-Radioactive Cell Proliferation Assay), is based on the conversion by viable cells, but not by dead cells, of the tetrazolium salt, MTS (3-(4,5-dimethylthiazol-2-yl)-5-(3-carboxymethoxyphenyl)-2-(4-sulphophenyl)-2H-tetrazolium, inner salt), into a water-soluble colored formazan which is detected by spectrophotometry. Compounds are tested at nine concentrations, in order to determine IC50 values. For the test procedure, cells are harvested by trypsinization (or, in the case of non-adherent cells, by simple resuspension), washed, counted and distributed to wells of 96-well flat-bottom microtiter plates at 1000 cells per well in 200 μL of medium. In addition, one row of wells on a separate plate received cells as above (“time 0” plate). All plates are incubated at 37° in humidified 5% CO2 in air for about 24 hr.
On day 2, compounds for test are diluted and added to wells. Compounds are dissolved in DMSO at 10 mg/mL. For each compound, nine serial 2-fold dilutions are prepared in DMSO. Ten μL of each dilution in DMSO is transferred to 100 μL of medium, mixed well, and then 5 μL of this dilution is transferred in quadruplicate to wells containing cells. The final high concentration of each compound is typically 5 μM. Plates are returned to the incubator for three days. At the time of drug addition to the experimental plates, the MTS assay is run on the “time 0” plate. This produced the “time 0 MTS value” which is related to the number of viable cells per well at the time of drug addition.
After three days of culture with test compounds (day 5 overall), the MTS assay is done on all wells of the experimental plates. The absorbance values of the quadruplicate sample wells are averaged and divided by the average of the “time 0” values. The average of control wells without drug, divided by the average “time 0” value, gave the maximal relative increase in MTS color yield due to cell growth during the final three days of culture. The average of control wells with high drug concentration, divided by the “time 0” value, gave the minimal relative color yield for cells that are completely killed. The nine values for each compound are plotted against concentration, and the concentration that produced a relative color yield half way between the maximum and minimum is taken as the IC50 value.
COLO 205 is a human colon carcinoma cell line that is used for comparative testing of the examples of this invention and several reference compounds. This line is sensitive to paclitaxel and vincristine.

[3] = tested on: A549 Human Non-Small Cell Lung Carcinoma; assay: Human tumor xenograft test, A549; type: in vivo, athymic mice; details: A549, intravenously q4dX8 at 40 mg/kg
Method: as §1, §2

Compound	IC50 ([2]; Homo sapiens, COLO 205, 72 h) [nM]	further results
C[C@H](Nc1c(-c2c(F)cc(OCCCN(C)C)cc2F)c(Cl)nc2ncnn12)C(F)(F)F [Example 1, 5-Chloro-6-{4-[3-(dimethylamino)propoxy]-2,6-difluorophenyl}-N-[(1S)-2,2,2-trifluoro-1-methylethyl][1,2,4]triazolo[1,5-a]pyrimidin-7-amine]		tumor growth inhibition (activity call) [1]: active; IC50 [2]: 41 nM
CN(C)CCCOc1cc(F)c(-c2c(Cl)nc3ncnn3c2NCC(F)(F)F)c(F)c1 [Example 4, 5-Chloro-6-{4-[3-(dimethylamino)propoxy]-2,6-difluorophenyl}-N-(2,2,2-trifluoroethyl)[1,2,4]triazolo[1,5-a]pyrimidin-7-amine]		tumor growth inhibition (activity call) [3]: inhibited the growth
C[C@H](Nc1c(-c2c(F)ccc(OCCCCN(C)C)c2F)c(Cl)nc2ncnn12)C(F)(F)F [Example 29, 5-Chloro-6-{3-[4-(dimethylamino)butoxy]-2,6-difluorophenyl}-N-[(1S)-2,2,2-trifluoro-1-methylethyl][1,2,4]triazolo[1,5-a]pyrimidin-7-amine]	433	
CN(C)CCCOc1cc(F)c(-c2c(Cl)nc3ncnn3c2C2CCCCCC2)c(F)c1 [Example 31, 3-[4-(5-Chloro-7-cycloheptyl[1,2,4]triazolo[1,5-a]pyrimidin-6-yl)-3,5-difluorophenoxy]-N,N-dimethylpropan-1-amine]	19	
CNCCCOc1cc(F)c(-c2c(Cl)nc3ncnn3c2N[C@H](C)C(F)(F)F)c(F)c1 [Example 33, 5-Chloro-6-{2,6-difluoro-4-[3-(methylamino)propoxy]phenyl}-N-[(1R)-2,2,2-trifluoro-1-methylethyl][1,2,4]triazolo[1,5-a]pyrimidin-7-amine]	126	
